This passage reports minimal effective concentration and DiMf/DiL4 results from US11771738B2 (Zoetis Services LLC, priority 2018, dated 2023).

Holding throughout (format): cell-based
Experiment [1] has as its system microfilariae of Dirofilaria immitis. Nature of the experiment: Dirofilaria immitis, Microfilaria (DiMf) In Vitro Assay. As to conditions: Dirofilaria immitis, 72 h, read-out: DiMf MED, Minimum Effective Dose, D. immitis microfilariae motility, in vitro.
In a further experiment the test system is D. immitis L4 larvae. Nature of the experiment: Dirofilaria immitis, L4 Stage (DiL4) In Vitro Assay. As to conditions: for minimal effective concentration: Dirofilaria immitis, 72 h, read-out: DiL4 MED, Minimum Effective Dose, D. immitis L4 larvae motility, in vitro; for DiMf/DiL4: larval stage selectivity, ratio of DiMf MED to DiL4 MED.
Experiment [2] has as its system third stage larvae of Haemonchus contortus. Nature of the experiment: Haemonchus contortus, Larvae Stage 3 (HcL3) In Vitro Assay. As to conditions: Haemonchus contortus, 96 h.
Where [3] appears, read: read-out: HcL3 MED, Haemonchus contortus third stage larvae in vitro, class mark appended to the Ex # in Table 3.
Setting [4] is: read-out: HcL3 MED, Minimum Effective Dose, H. contortus third stage larvae, approximately 96 hours.

SMILES strings stand for the structures. Read-outs that look alike come from different tables or passages of the source. A value given as a limit tells only on which side of the number the result lay.

Turning to `COc1ccnc(Cc2ccc(C[C@H]3OC(=O)[C@H](CC(C)C)N(C)C(=O)[C@@H](C)OC(=O)[C@H](CC(C)C)N(C)C(=O)[C@@H](Cc4ccc(Cc5nccc(OC)n5)cc4)OC(=O)[C@H](CC(C)C)N(C)C(=O)[C@@H](C)OC(=O)[C@H](CC(C)C)N(C)C3=O)cc2)n1` [Example 3-217, (3S,6R,9S,12R,15S,18R,21S,24R)-3,9,15,21-tetraisobutyl-6,18-bis(4-((4-methoxypyrimidin-2-yl)methyl)benzyl)-4,10,12,16,22,24-hexamethyl-1,7,13,19-tetraoxa-4,10,16,22-tetraazacyclotetracosan-2,5,8,11,14,17,20,23-octaone], the minimal effective concentration was 0.003 µM in experiment [1], less than 0.0007 µM in the experiment with D. immitis L4 larvae, 1 to 3.3 µM in experiment [2] (setting [3]) and 3.3 µM in experiment [2] (setting [4]). In the experiment on D. immitis L4 larvae, the DiMf/DiL4 is more than 4.3.

`COc1cncc(Cc2ccc(C[C@H]3OC(=O)[C@H](CC(C)C)N(C)C(=O)[C@@H](C)OC(=O)[C@H](CC(C)C)N(C)C(=O)[C@@H](Cc4ccc(Cc5cncc(OC)n5)cc4)OC(=O)[C@H](CC(C)C)N(C)C(=O)[C@@H](C)OC(=O)[C@H](CC(C)C)N(C)C3=O)cc2)n1` [Example 3-218, (3S,6R,9S,12R,15S,18R,21S,24R)-3,9,15,21-tetraisobutyl-6,18-bis(4-((6-methoxypyrazin-2-yl)methyl)benzyl)-4,10,12,16,22,24-hexamethyl-1,7,13,19-tetraoxa-4,10,16,22-tetraazacyclotetracosan-2,5,8,11,14,17,20,23-octaone]: the minimal effective concentration in experiment [1] was 0.01 µM; in the experiment on D. immitis L4 larvae it was 0.0008 µM; in experiment [2] (setting [4]), more than 23 µM. For the same compound, in the experiment with D. immitis L4 larvae, the DiMf/DiL4 worked out at 12.5.

As for `COc1ncccc1C(C)(F)c1ccc(C[C@H]2OC(=O)[C@H](CC(C)C)N(C)C(=O)[C@@H](C)OC(=O)[C@H](CC(C)C)N(C)C(=O)[C@@H](Cc3ccc(C(C)(F)c4cccnc4OC)cc3)OC(=O)[C@H](CC(C)C)N(C)C(=O)[C@@H](C)OC(=O)[C@H](CC(C)C)N(C)C2=O)cc1` (stereo partly drawn) [Example 3-220, (3S,6R,9S,12R,15S,18R,21S,24R)-6,18-bis(4-(1-fluoro-1-(2-methoxypyridin-3-yl)ethyl)benzyl)-3,9,15,21-tetraisobutyl-4,10,12,16,22,24-hexamethyl-1,7,13,19-tetraoxa-4,10,16,22-tetraazacyclotetracosan-2,5,8,11,14,17,20,23-octaone], the values for the minimal effective concentration (in experiment [1]; in the experiment on D. immitis L4 larvae; in experiment [2] (setting [4])) were 0.005 µM, 0.0007 µM and more than 100 µM, respectively. Further, the DiMf/DiL4 with D. immitis L4 larvae turned out to be 7.1.

For `Cc1ccncc1Cc1ccc(C[C@H]2OC(=O)[C@H](CC(C)C)N(C)C(=O)[C@@H](C)OC(=O)[C@H](CC(C)C)N(C)C(=O)[C@@H](Cc3ccc(Cc4cnccc4C)cc3)OC(=O)[C@H](CC(C)C)N(C)C(=O)[C@@H](C)OC(=O)[C@H](CC(C)C)N(C)C2=O)cc1` [Example 3-223, (3S,6R,9S,12R,15S,18R,21S,24R)-3,9,15,21-tetraisobutyl-4,6,10,16,18,22-hexamethyl-12,24-bis(4-((4-methylpyridin-3-yl)methyl)benzyl)-1,7,13,19-tetraoxa-4,10,16,22-tetraazacyclotetracosan-2,5,8,11,14,17,20,23-octaone], the minimal effective concentration in experiment [1] worked out at 0.005 µM; with D. immitis L4 larvae, 0.0007 µM; in experiment [2] (setting [4]) it was 5.7 µM. Also, in the experiment on D. immitis L4 larvae, the DiMf/DiL4 turned out to be 7.1.

Turning to `COc1cccc(C(C)(F)c2ccc(C[C@H]3OC(=O)[C@H](CC(C)C)N(C)C(=O)[C@@H](C)OC(=O)[C@H](CC(C)C)N(C)C(=O)[C@@H](Cc4ccc(C(C)(F)c5cccc(OC)n5)cc4)OC(=O)[C@H](CC(C)C)N(C)C(=O)[C@@H](C)OC(=O)[C@H](CC(C)C)N(C)C3=O)cc2)n1` (stereo partly drawn) [Example 3-225, (3S,6R,9S,12R,15S,18R,21S,24R)-6,18-bis(4-(1-fluoro-1-(6-methoxypyridin-2-yl)ethyl)benzyl)-3,9,15,21-tetraisobutyl-4,10,12,16,22,24-hexamethyl-1,7,13,19-tetraoxa-4,10,16,22-tetraazacyclotetracosan-2,5,8,11,14,17,20,23-octaone], the minimal effective concentration in experiment [1] was 0.3 µM; with D. immitis L4 larvae it was 0.0007 µM; in experiment [2] (setting [4]) it was more than 100 µM. Moreover, the DiMf/DiL4 with D. immitis L4 larvae came to 429.

For `CC(C)C[C@H]1C(=O)O[C@H](Cc2ccc(Cc3snnc3C(C)C)cc2)C(=O)N(C)[C@@H](CC(C)C)C(=O)O[C@H](C)C(=O)N(C)[C@@H](CC(C)C)C(=O)O[C@H](Cc2ccc(Cc3snnc3C(C)C)cc2)C(=O)N(C)[C@@H](CC(C)C)C(=O)O[C@H](C)C(=O)N1C` [Example 3-228, (3S,6R,9S,12R,15S,18R,21S,24R)-3,9,15,21-tetraisobutyl-6,18-bis(4-((4-isopropyl-1,2,3-thiadiazol-5-yl)methyl)benzyl)-4,10,12,16,22,24-hexamethyl-1,7,13,19-tetraoxa-4,10,16,22-tetraazacyclotetracosan-2,5,8,11,14,17,20,23-octaone], the minimal effective concentration in experiment [1] was 0.01 µM; in the experiment with D. immitis L4 larvae, 0.0005 µM; in experiment [2] (setting [4]) it was more than 100 µM. Also, the DiMf/DiL4 in the experiment with D. immitis L4 larvae worked out at 20.

For the compound `CC(C)C[C@H]1C(=O)O[C@H](Cc2ccc(Cc3cccnc3C(F)(F)F)cc2)C(=O)N(C)[C@@H](CC(C)C)C(=O)O[C@H](C)C(=O)N(C)[C@@H](CC(C)C)C(=O)O[C@H](Cc2ccc(Cc3cccnc3C(F)(F)F)cc2)C(=O)N(C)[C@@H](CC(C)C)C(=O)O[C@H](C)C(=O)N1C` [Example 3-238, (3S,6R,9S,12R,15S,18R,21S,24R)-3,9,15,21-tetraisobutyl-4,6,10,16,18,22-hexamethyl-12,24-bis(4-((2-(trifluoromethyl)pyridin-3-yl)methyl)benzyl)-1,7,13,19-tetraoxa-4,10,16,22-tetraazacyclotetracosan-2,5,8,11,14,17,20,23-octaone], the values for the minimal effective concentration (in experiment [1]; in the experiment on D. immitis L4 larvae; in experiment [2] (setting [4])) were 0.002 µM, 0.0001 µM and more than 5 µM, respectively. Moreover, the DiMf/DiL4 in the experiment on D. immitis L4 larvae stood at 20.

Turning to `Cc1ccc(Cc2ccc(C[C@H]3OC(=O)[C@H](CC(C)C)N(C)C(=O)[C@@H](C)OC(=O)[C@H](CC(C)C)N(C)C(=O)[C@@H](Cc4ccc(Cc5ccc(C)nc5C)cc4)OC(=O)[C@H](CC(C)C)N(C)C(=O)[C@@H](C)OC(=O)[C@H](CC(C)C)N(C)C3=O)cc2)c(C)n1` [Example 3-240, (3S,6R,9S,12R,15S,18R,21S,24R)-6,18-bis(4-((2,6-dimethylpyridin-3-yl)methyl)benzyl)-3,9,15,21-tetraisobutyl-4,10,12,16,22,24-hexamethyl-1,7,13,19-tetraoxa-4,10,16,22-tetraazacyclotetracosan-2,5,8,11,14,17,20,23-octaone], the values for the minimal effective concentration (in experiment [1]; in the experiment on D. immitis L4 larvae; in experiment [2] (setting [4])) were 0.02 µM, 0.001 µM and 5.7 µM, respectively. Besides, the DiMf/DiL4 in the experiment with D. immitis L4 larvae was determined as 20.

`Cc1[nH]ncc1Cc1ccc(C[C@H]2OC(=O)[C@H](CC(C)C)N(C)C(=O)[C@@H](C)OC(=O)[C@H](CC(C)C)N(C)C(=O)[C@@H](Cc3ccc(Cc4cn[nH]c4C)cc3)OC(=O)[C@H](CC(C)C)N(C)C(=O)[C@@H](C)OC(=O)[C@H](CC(C)C)N(C)C2=O)cc1` [Example 3-243, (3S,6R,9S,12R,15S,18R,21S,24R)-3,9,15,21-tetraisobutyl-4,6,10,16,18,22-hexamethyl-12,24-bis(4-((5-methyl-1H-pyrazol-4-yl)methyl)benzyl)-1,7,13,19-tetraoxa-4,10,16,22-tetraazacyclotetracosan-2,5,8,11,14,17,20,23-octaone]: the minimal effective concentration in experiment [1] turned out to be 0.001 µM; in the experiment on D. immitis L4 larvae, 0.001 µM; in experiment [2] (setting [4]), 7.5 µM. Besides, the DiMf/DiL4 in the experiment with D. immitis L4 larvae was 1.

As for `COc1cnc(C(C)(F)c2ccc(C[C@H]3OC(=O)[C@H](CC(C)C)N(C)C(=O)[C@@H](C)OC(=O)[C@H](CC(C)C)N(C)C(=O)[C@@H](Cc4ccc(C(C)(F)c5cnc(OC)cn5)cc4)OC(=O)[C@H](CC(C)C)N(C)C(=O)[C@@H](C)OC(=O)[C@H](CC(C)C)N(C)C3=O)cc2)cn1` (stereo partly drawn) [Example 3-252, (3S,6R,9S,12R,15S,18R,21S,24R)-6,18-bis(4-(1-fluoro-1-(5-methoxypyrazin-2-yl)ethyl)benzyl)-3,9,15,21-tetraisobutyl-4,10,12,16,22,24-hexamethyl-1,7,13,19-tetraoxa-4,10,16,22-tetraazacyclotetracosan-2,5,8,11,14,17,20,23-octaone], the minimal effective concentration in experiment [1] is 0.02 µM; in the experiment with D. immitis L4 larvae, 0.0007 µM; in experiment [2] (setting [4]), more than 42 µM. In addition, in the experiment on D. immitis L4 larvae, the DiMf/DiL4 amounted to 28.6.

For the compound `CCn1nccc1Cc1ccc(C[C@H]2OC(=O)[C@H](CC(C)C)N(C)C(=O)[C@@H](C)OC(=O)[C@H](CC(C)C)N(C)C(=O)[C@@H](Cc3ccc(Cc4ccnn4CC)cc3)OC(=O)[C@H](CC(C)C)N(C)C(=O)[C@@H](C)OC(=O)[C@H](CC(C)C)N(C)C2=O)cc1` [Example 3-253, (3S,6R,9S,12R,15S,18R,21S,24R)-6,18-bis(4-((1-ethyl-1H-pyrazol-5-yl)methyl)benzyl)-3,9,15,21-tetraisobutyl-4,10,12,16,22,24-hexamethyl-1,7,13,19-tetraoxa-4,10,16,22-tetraazacyclotetracosan-2,5,8,11,14,17,20,23-octaone], the minimal effective concentration in experiment [1] was 0.0003 µM; with D. immitis L4 larvae it was 0.001 µM; in experiment [2] (setting [3]), less than 1 µM; in experiment [2] (setting [4]) it was 1 µM; in experiment [2] (read-out: HcL3 MED, approximately 96 hours incubation, multiple-resistant field isolate), not above 1 µM. Moreover, the DiMf/DiL4 with D. immitis L4 larvae was 0.3.
